Patent publication US7038049B2, “Haloanilino quinazolines and therapeutic use thereof” (Parker Hughes Institute, priority 1999, dated 2006)

Assays:
[1] = tested on: BT20 human breast cancer cells; test: MTT cytotoxicity assay, BT20; assay type: cell-based; conditions: Homo sapiens
Description: (§1) The cytotoxicity assay of various compounds against human tumor cell lines was performed using the MTT (3-[4,5-dimethylthiazol-2-yl]-2,5-diphenyl tetrazolium bromide) assay (Boehringer Mannheim Corp., Indianapolis, Ind.). Briefly, exponentially growing tumor cells were seeded into a 96-well plate at a density of 2.5×10^4 cells/well and incubated for 36 hours at 37° C. prior to drug exposure. On the day of treatment, culture medium was carefully aspirated from the wells and replaced with fresh medium containing the quinazoline compounds at concentrations ranging from 0.1 to 250 μM. Triplicate wells were used for each treatment.
(§2) Human cell lines were obtained from American Type Culture Collection (Rockville, Md.) and maintained as a continuous cell line in Dulbecco's modified Eagles' medium supplemented with 10% fetal bovine serum and antibiotics. Cells used in this study include human leukemia cells (NALM-6 and MOLT-3), human breast cancer cells ([…]), human prostate cancer cells (PC3), and human brain tumor cells (U373).
(§3) The cells were incubated with the various compounds for 24–36 hours at 37° C. in a humidified 5% CO2 atmosphere. To each well, 10 μl of MTT (0.5 mg/ml final concentration) was added and the plates were incubated at 37° C. for 4 hours to allow MTT to form formazan crystals by reacting with metabolically active cells. The formazan crystals were solubilized overnight at 37° C. in a solution containing 10% SDS in 0.01 M HCl. The absorbance of each well was measured in a microplate reader (Labsystems) at 540 nm and a reference wavelength of 690 nm. To translate the OD 540 values into the number of live cells in each well, the OD 540 values were compared to those on standard OD 540—versus—cell number curves generated for each cell line. The percent survival was calculated using the formula:
(§4) [formula] The IC50 values were calculated by non-linear regression analysis. Detection of Apoptosis

[2] = tested on: PC3 human prostate cancer cells; test: MTT cytotoxicity assay, PC3; assay type: cell-based; conditions: Table 5, fluoro-substituted, value ± spread
Description: as §1, §2, §3, §4

[3] = tested on: NALM-6 human leukemia cells; test: MTT cytotoxicity assay, NALM-6; assay type: cell-based; conditions: Homo sapiens
Description: as §1, §2, §3, §4

[4] = tested on: U373 human brain tumor cells; test: MTT cytotoxicity assay, U373; assay type: cell-based; conditions: Homo sapiens, U373 MG, Table 5, fluoro-substituted, value ± spread
Description: as §1, §2, §3, §4

PC3 cells = test: TUNEL apoptosis assay, PC3; assay type: cell-based, human; conditions: 24 hours incubation, FIG. 3
Description: Exponentially growing cells were seeded in 6-well tissue culture plates at a density of 50×10^4 cells/well and cultured for 36 hours at 37° C. in a humidified 5% CO2 atmosphere. The supernatant culture medium was carefully aspirated and replaced with fresh medium containing unconjugated EGF or EGF-P154 at a concentration of 10, 25, or 50 μg/ml. After a 36 hour incubation at 37° C. in a humidified 5% CO2 incubator, the supernatants were carefully aspirated and the cells were treated for 1–2 minutes with 0.1% trypsin. The detached cells were collected into a 15 ml centrifuge tube, washed with medium and pelleted by centrifugation at 1000 rpm for 5 minutes. Cells were resuspended in 50 μl of PBS, transferred to poly-L-lysine coated coverslips and allowed to attach for 15 minutes. The cells were washed once with PBS and incubated with equilibration buffer for 10 minutes at room temperature. […]
The cells were incubated with HI-P353 or HI-P219 for 24 hours, fixed, permeabilized, and visualized for DNA degradation in a TUNEL assay using digoxigenin-UTP-labeling kit. In the color photographs, red fluorescence represents nuclei stained with propidium iodide. […]

[5] = tested on: MOLT-3 human leukemia cells; test: MTT cytotoxicity assay, MOLT-3; assay type: cell-based; conditions: Homo sapiens
Description: as §1, §2, §3, §4

[6] = BT-20, Table 5, fluoro-substituted, value ± spread
[7] = NALM-6, Table 5, fluoro-substituted, value ± spread
[8] = MOLT-3, Table 5, fluoro-substituted, value ± spread

SMILES	IC50 [1, 6] [µM]	IC50 [2] [µM]	IC50 [3, 7] [µM]	IC50 [4] [µM]	Induction of apoptosis (TUNEL) (PC3 cells)	IC50 [5, 8] [µM]	IC50 ([1]; BT-20, Table 1, bromo substituted, 24–36 hours) [µM]	IC50 ([3]; NALM-6, Table 1, bromo substituted, 24–36 hours) [µM]	IC50 ([5]; MOLT-3, Table 1, bromo substituted, 24–36 hours) [µM]
COc1cc2ncnc(Nc3ccc(OC(F)(F)F)cc3)c2cc1OC [HI-P219, 4-(4′-Trifluoromethoxylphenyl)-amino-6,7-dimethoxyqui-nazoline]	44.2 ± 10.9	58.3 ± 3.2	22.3 ± 3	83.6 ± 6.5	Apoptosis was induced	41.3 ± 4.4			
COc1cc2ncnc(Nc3cccc(F)c3)c2cc1OC [HI-P224, 4-(3′-fluorophenyl)amino-6,7-dimethoxyquinazoline]	58.3 ± 5.8	> 250	20.2 ± 8.1	22.4 ± 5.9		23.3 ± 7.7			
COc1cc2ncnc(Nc3cc(F)c(O)c(F)c3)c2cc1OC [HI-P408, 4-(4′-Hydroxyl-3′,5′-difluorophenyl)-amino6,7-dimethoxy-quinazoline]	> 250	> 250	116 ± 17.8	> 250		228 ± 20.8			
COc1cc2ncnc(Nc3ccccc3C(F)(F)F)c2cc1OC [HI-P228, 4-(2′-Trifluoromethylphenyl)-amino-6,7-dimethoxyquinazoline]	> 250	> 250	57.3 ± 24.8	> 250		237 ± 4.8			
COc1cc2ncnc(Nc3ccc(C(F)(F)F)cc3)c2cc1OC [HI-P223, 4-(4′-Trifluoromethylphenyl)-amino-6,7-dimethoxyquinazoline]	27.6 ± 8.6	> 250	39.5 ± 8	32.1 ± 3.9		40.8 ± 15.1			
COc1cc2ncnc(Nc3ccc(O)c(F)c3)c2cc1OC [HI-P369, 4-(4′-Hydroxyl-3′-fluorophenyl)-amino-6,7-dimethoxyquinazoline]	> 250	> 250	> 250	> 250		> 250			
COc1cc2ncnc(Nc3cc(C(F)(F)F)cc(C(F)(F)F)c3)c2cc1OC [HI-P366, 4-(3′,5′-Ditrifluoromethylphenyl)-amno-6,7-dimethoxyquinazoline]	61.7 ± 12.1	> 250	52.8 ± 14	55.5 ± 13.2		137 ± 10.3			
COc1cc2ncnc(Nc3cccc(C(F)(F)F)c3)c2cc1OC [HI-P218, 4-(3′-Trifluoromethylphenyl)-amino-6,7-dimethoxyquinazo-line]	37.6 ± 5.2	126 ± 5.8	37 ± 5.8	29.9 ± 7.3		33.2 ± 3.3			
COc1cc2ncnc(Nc3ccccc3OC(F)(F)F)c2cc1OC [HI-P365, 4-(2′-Trifluoromethoxylphenyl)-amino-6,7-dimethoxyquinazoline]	> 250	> 250	86.5 ± 3.4	> 250		111 ± 7.5			
COc1cc2ncnc(Nc3ccc(C(c4cccc(N)c4)(C(F)(F)F)C(F)(F)F)cc3)c2cc1OC [HI-P353]	14.1 ± 3.3	64.9 ± 11.9	6.1 ± 1.4	14.5 ± 7.6		17.4 ± 1.5			
COc1cc2ncnc(Nc3cccc(OC(F)(F)F)c3)c2cc1OC [HI-P364, 4-(3′-Trifluoromethoxylphenyl)-amino-6,7-dimethoxyquinazoline]	40.1 ± 8.6	> 250	7.9 ± 1.9	27.7 ± 1.2		25.3 ± 9.1			
COc1cc2ncnc(Nc3ccccc3F)c2cc1OC [HI-P264, 4-(2′-Fluorophenyl)-amino-6,7-dimethoxyquinazoline]	33.3 ± 7.5	> 250	47 ± 19.5	53.3 ± 6.7		70.9 ± 17.3			
COc1cc2ncnc(Nc3ccc(F)cc3)c2cc1OC [HI-P221, 4-(4′-Fluorophenyl)-amino-6,7-dimethoxyquinazoline]	30.7 ± 7.9	> 250	100 ± 4.8	28.8 ± 12.7		98.7 ± 3.8			
COc1cc2ncnc(Nc3c(F)c(F)c(Br)c(F)c3F)c2cc1OC [HI-P144, 4-(2′,3′,5′,6′-tetrafluoro-4′-bromophenyl)amino-6,7-dimethoxyquinazoline]	63.4 ± 5.5	> 250	28.1 ± 2.6	49.5 ± 11.3		24.9 ± 3.7			
COc1cc2ncnc(Nc3ccc(S(=O)(=O)F)cc3)c2cc1OC [HI-P232, 4-[4′-benzenesulfanilylfluoride]-amino-6,7-dimethoxyquinazoline]	70.5 ± 8.2	88.9 ± 17.2	41.4 ± 6.9	208 ± 18.1		43.6 ± 2.3			
COc1cc2ncnc(Nc3ccc(C(c4ccc(N)cc4)(C(F)(F)F)C(F)(F)F)cc3)c2cc1OC [HI-P352, 4-{4′-[2″-(4′′′-Aminophenyl)-hexafluoropropyl]phenyl}amino-6,7-dimethoxyquinazoline]	50.3 ± 14.8	72.6 ± 2.5	7.1 ± 1.8	65.5 ± 11.2		21.8 ± 1.7			
COc1cc2ncnc(Nc3ccc(Br)cc3F)c2cc1OC [HI-P214, 4-(2′-Fluoro-4′-bromophenyl)-amino-6,7-dimethoxyquinazoline]	> 250	> 250	> 250	> 250		> 250	> 250	> 250	> 250
